Laboratory results reported in article PMC3342448 (Cancer Research, 2012).

How the values were obtained:
MCF7-β3/MT cells [1] = experiment: COL-I degradation assay, MCF7-β3/MT cells; type: cell-based, Human; conditions: compound 100 μM, 3 days
CAT = CAT (Homo sapiens, UniProt P50281); experiment: Cleavage of fluorescent peptide by MT1-MMP catalytic domain; type: biochemical; conditions: CAT 10 nM, fluorescent substrate 10 μM
cellular MT1-MMP = cellular MT1-MMP (Homo sapiens, UniProt P50281); experiment: Gelatin zymography of MMP-2 activation by 184B5-MT cells; type: cell-based; conditions: 184B5-MT cells with proMMP-2, compound 1–100 μM
[2] = Solubility in aqueous solutions; type: physicochemical; conditions: 400 μM stock in PBS was highest reachable
MT1-MMP = MT1-MMP (Homo sapiens, UniProt P50281); experiment: Gelatin zymography of MCF7-β3/MT tumor extracts; type: in vivo; conditions: tumor extracts of mice treated 0.5 mg/kg intratumoral
MCF7-β3/MT xenografts = experiment: MCF7-β3/MT tumor xenografts in mice; type: in vivo
184B5-MT cells [3] = experiment: Transwell migration assay on COL-I, 184B5-MT cells; type: cell-based, Human; conditions: compounds 10–100 μM, 16–18 h
184B5-MT cells [4] = experiment: Cell adhesion assay on COL-I and Matrigel, 184B5-MT cells; type: cell-based, Human; conditions: compounds 25–100 μM, 1 h adhesion
MCF7-β3/MT cells [5] = experiment: Cell viability; type: cell-based, Human; conditions: 400 μM, 6 h
MT1-MMP homodimerization = MT1-MMP homodimerization (Homo sapiens, UniProt P50281); experiment: MT1-MMP dimerization test; type: cell-based; conditions: compounds 100 μM, 24 h, MCF7-MT-V5 cells transfected with MT1-MMP-FLAG
MMP-2 = target: T1, MMP-2 (Homo sapiens, UniProt P08253); experiment: Catalytic activity of MMP-2; type: biochemical; conditions: not shown
T1 sequence (P08253 110-660): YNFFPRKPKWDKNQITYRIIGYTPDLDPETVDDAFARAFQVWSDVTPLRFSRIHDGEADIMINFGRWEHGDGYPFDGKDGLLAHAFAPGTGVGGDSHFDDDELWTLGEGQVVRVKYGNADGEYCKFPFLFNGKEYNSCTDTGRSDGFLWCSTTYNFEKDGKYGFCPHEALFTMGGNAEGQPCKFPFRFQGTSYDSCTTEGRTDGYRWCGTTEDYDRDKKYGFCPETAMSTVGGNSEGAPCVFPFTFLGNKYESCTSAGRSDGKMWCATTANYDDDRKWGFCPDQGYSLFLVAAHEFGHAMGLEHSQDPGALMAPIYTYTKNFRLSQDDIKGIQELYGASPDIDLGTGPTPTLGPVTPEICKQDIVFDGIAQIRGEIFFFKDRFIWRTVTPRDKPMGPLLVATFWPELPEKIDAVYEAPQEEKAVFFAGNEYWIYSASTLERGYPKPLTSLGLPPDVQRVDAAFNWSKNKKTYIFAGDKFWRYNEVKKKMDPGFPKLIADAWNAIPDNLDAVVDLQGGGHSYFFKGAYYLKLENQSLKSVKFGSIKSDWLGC

MDA-MB-231 cells = experiment: Transwell migration assay on COL-I, MDA-MB-231 cells; type: cell-based, Human; conditions: compounds 100 μM

## CCCC(C)NC(=O)c1ccc(Cl)c(Cl)c1 (stereo not drawn) [compound 9]
MCF7-β3/MT cells [1]
  collagenolytic activity (COL-I degradation) in MCF7-β3/MT cells: dramatically reduced
CAT
  effect on cleavage activity of CAT: did not affect the cleavage activity
Cellular MT1-MMP
  catalytic function of cellular MT1-MMP (MMP-2 activation): did not inhibit
[2]
  solubility: limited solubility
MT1-MMP
  ability of MT1-MMP to activate MMP-2 in tumors: did not affect
MCF7-β3/MT xenografts; 0.5 mg/kg intratumoral
  physical damage and necrosis in tumors after injections: no physical damage and necrosis
MCF7-β3/MT xenografts; 0.5 mg/kg intratumoral injections
  tumor phenotype: caused a fibrotic tumor phenotype
MCF7-β3/MT xenografts; 0.5 mg/kg intratumoral, compared with control mice
  xenograft angiogenesis (H&E staining): did not reveal any significant effect
MCF7-β3/MT xenografts; 0.5 mg/kg intratumoral, experimental versus control
  immunoreactivity and levels of COL-I in tumors: significantly enhanced
184B5-MT cells [3]
  migration of 184B5-MT cells on COL-I: repressed migration of 184B5-MT cells on COL-I in a dose-dependent manner
184B5-MT cells [4]
  adhesion of 184B5-MT on Matrigel and COL-I substrates: did not affect cell adhesion
MCF7-β3/MT cells [5]
  cytotoxicity in MCF7-β3/MT cells: did not demonstrate any cytotoxicity
MT1-MMP homodimerization
  levels of co-precipitated MT1-MMP-V5 in pull-down samples (homodimerization): significantly reduced
MMP-2
  catalytic activity of MMP-2: did not inhibit
MDA-MB-231 cells
  migration of MDA-MB-231 cells: did not show any inhibitory effect
